Read-outs that look alike come from different tables or passages of the source.
Experiments:
[1] = system: blood-perfused sino-atrial preparation; assay: sinus rate on blood-perfused sino-atrial preparation; design: species or system dog; settings: for activation at 0.003 mg: dose 3.0 ug
Procedure: Determination of sinus rate on blood-perfused sino-atrial preparation: Mongrel gods of either sex weighing 7-12 kg were anesthetized with sodium pentoba rbital (30 mg/kg i.v.). Heparin ob 1000 unit/kg was administered to each animal intravenously and the animals were exsanguinated. Heart was removed and put in Krebs-Henseleit solution. Catheter was inserted into blood vessel between right coronary artery and SA nodes. Right atrium and catheter were together removed. Blood supplied from carotid artery of donor dog of either sex weighing 15-25 kg, was supplied to blood vessel cather from right coronary artery and SA node under constant blood pressure of 100 mmHG by use of Peristaltic pump. The resting tension of right atrial muscle was made to 2g. The sinus rate triggered by spontaneous contraction of atrial muscle was determined on Narco physiograph Narcotrace 4). Detailed method was reported by S. Chiba, et al. in Japanese Pharmacology 25, 433-439(1975). Doses of test compounds were injected into flowing blood in gum tube connected to the near part of the catheter inserted into right coronary artery. The effects on sinus rate were shown as percent compared with the sinus ratio prior to the injection of the test compounds.

[2] = system: blood perfused papillary muscle preparation; assay: contractile power on blood perfused papillary muscle preparation; design: species or system dog; settings: Canis lupus familiaris, read-out: change of contractivity (%); for activation at 0.001 mg: dose 1.0 ug; for activation at 0.01 mg: dose 10.0 ug
Procedure: Determination of contractile power on blood perfused papillary muscle preparation:
Dogs of either sex weighing 7-12 kg were anesthetized with sodium pentobarbital (30 mg/kg, i.v.). Heparin of 1000 unit/kg was administered to each animal intravenously. The animals were exsanguinated and heart was removed. The preparation was perfused through the cannulated anterior septal artery (ASA) with arterial blood from a donor dog at constant pressure of about […]. Donor dogs were anesthetized with sodium pentobarbital (30 mg/kg, i.v.). Heparin of 1000 units/kg was administered intravenously. The papillary muscle was stimulated with rectangular pulses of 5- ms duration and about 1.5 times the threshold voltage at a rate of 120 stimuli/min through bipolar electrodes. Resting tension was made to 2 g. The developed tension of papillary muscle was determined by Isometric tresducer. Detailed method was reporated by Matsumoto in Am J. Physiol. 218, 1459-1463 (1970). Test compound at the doses of 10-30 ul was injected in flowing blood in the gum tube connected to catheter. The inotropic effect of the test compounds was shown by change percent of developed tension compared with that prior to the administration of the test compounds.

[3] = system: Spraque-Dawley rats; assay: acute toxicity test in Spraque-Dawley rats; settings: rat, in vivo, po, 300 mg/kg
Procedure: Acute toxicity test of 6-(4-methylimidazol-1-yl)-(4H)-3,1-benzoxazin-2-one was conducted in Spraque-Dawley rats. The test compound was suspended in 5% arabic gum and was administered orally to six rats at a dose of 300 mg/kg body weight. […] Accordingly, LD 50 of the compound is 300 mg/kg or more.

[4] = system: anesthetized cats; assay: cardiotonic effect on anesthetized cats; assay type: in vivo, cat; settings: Felis catus; for change in vivo at 0.01 mg/kg: 0.01 mg/Kg iv; for change in vivo at 0.03 mg/kg: 0.03 mg/Kg iv; for change in vivo at 0.1 mg/kg: 0.1 mg/Kg iv
Procedure: Determination of cardiotonic effect on anesthetized cats: Male cats weighing about 3 kg were anesthetized with sodium pentobarbital (30 mg/kg, i.p.). The same anesthetic was infused intravenously at the does of 4 mg/kg/hr in order to maintain the anesthetic state and mechanically ventilated through a cuffed endotracheal tube, chest was opened by a midline incision and a catheter for measuring left ventricular pressure was inserted through apex into left ventricle and the left ventricular pressure was measured. LVdP/dt was determined by use of diffentiator from the left ventricular pressure. Systemic blood pressure was measured by the left femoral artery by a pressure transducer and heart rate was measured by a cardiotachometer triggered by blood pressure pulses. Test compound was injected into the femoral vein by use of cannule. After completion of the surgical procedures, the cats were allowed to recover about 30 minutes before drug administration. These compounds were dissolved in 0.9% physiological saline and diluted with saline. Solvent such as DMSO or DMF was also used, if necessary. Test compound of 0.1 ml/kg was used. Detailed method was reporated in J. Med. Chem. 30. 1279-87(1987).

[5] = system: BALB/C mice; assay: acute toxicity test in BALB/C mice; assay type: in vivo, mouse; settings: oral, 200 mg/kg, five mice
Procedure: Acute toxicity test in mice:
Acute toxicity test of 6-(4-methylimidazol-1-yl)-(4H)-3,1-benzothiazine-2-thione was conducted in BALB/C mice. The test compound was suspended in 5% arabic gum solution and administered orally to five mice at a dose of 200 mg/kg body weight by gastric tubing. […] Accordingly, LD50 of the compound is 200 mg/kg or more.

[6] = system: ICR mouse; assay: acute toxicity test in ICR mouse; assay type: in vivo; settings: intravenous, 30 mg/kg, five mice
Procedure: Acute toxicity test of 6-(4-methylimidazol-1-yl)-(4H)-3,1-benzothiazin-2-one was conducted in ICR mouse. The test compound was dissolved in a mixed solvent of saline and DMF (2:1) and was administered intravenously to five mice at a dose of 30 mg/kg body weight. […] Accordingly, LD50 of the compound is 30 mg/kg or more.

[7] = Canis lupus familiaris, read-out: change of sinus rate (%)

| Structure (SMILES) | activation at 0.003 mg [1, 7] [%] | activation at 0.001 mg [2] [%] | change in vivo at 0.01 mg/kg ([4]; read-out: HR (%)) [%] | change in vivo at 0.01 mg/kg ([4]; read-out: LV dp/dt (%)) [%] | change in vivo at 0.01 mg/kg ([4]; read-out: LVP (%)) [%] | change in vivo at 0.01 mg/kg ([4]; read-out: SBP (%)) [%] | change in vivo at 0.01 mg/kg ([4]; read-out: dBP) [%] | change in vivo at 0.01 mg/kg ([4]; read-out: mBP (%)) [%] | change in vivo at 0.03 mg/kg ([4]; read-out: HR (%)) [%] | change in vivo at 0.03 mg/kg ([4]; read-out: LV dp/dt (%)) [%] | change in vivo at 0.03 mg/kg ([4]; read-out: LVP (%)) [%] | change in vivo at 0.03 mg/kg ([4]; read-out: SBP (%)) [%] | change in vivo at 0.03 mg/kg ([4]; read-out: dBP) [%] | change in vivo at 0.03 mg/kg ([4]; read-out: mBP (%)) [%] | change in vivo at 0.1 mg/kg ([4]; read-out: HR (%)) [%] | change in vivo at 0.1 mg/kg ([4]; read-out: LV dp/dt (%)) [%] | change in vivo at 0.1 mg/kg ([4]; read-out: LVP (%)) [%] | change in vivo at 0.1 mg/kg ([4]; read-out: SBP (%)) [%] | change in vivo at 0.1 mg/kg ([4]; read-out: dBP) [%] | change in vivo at 0.1 mg/kg ([4]; read-out: mBP (%)) [%] | also measured |
| --- | --- | --- | --- | --- | --- | --- | --- | --- | --- | --- | --- | --- | --- | --- | --- | --- | --- | --- | --- | --- | --- |
| Cc1cn(-c2ccc3c(c2)COC(=O)N3)cn1 [6-(4-methylimidazol-1-yl)(4H)-3,1-benzoxazin-2-one] | 2.52 | 2.94 | 1.25 | 29.6 | 7.69 | -4.55 | -7.14 | -6 | 1.88 | 85.2 | 23.1 | -9.12 | -10.7 | -10.2 | 6.25 | 113 | 30.8 | -15.9 | -14.3 | -15 | activation at 0.001 mg ([1]; Canis lupus familiaris, dose 1.0 ug, read-out: change of sinus rate (%)): 0%; activation at 0.01 mg ([1]; Canis lupus familiaris, dose 10.0 ug, read-out: change of sinus rate (%)): 5.04%; change of sinus rate (%) ([1]; at the ED 30 dose): +5.17%; activation at 0.003 mg ([2]; dose 3.0 ug): 13%; activation at 0.01 mg [2]: 30.4%; dead animals [3]: no dead animal was found |
| Cc1cn(-c2ccc3c(c2)CSC(=S)N3)cn1 [6-(4-methylimidazol-1-yl)-(4H)-3,1-benzothiazine-2-thione] |  |  | 0 | 3.7 | 0 | 4 | 4 | 4 | 2.1 | 18.5 | 0 | 0 | -4 | -3 | 3.6 | 40.7 | 1.2 | -4.7 | -14 | -10 | dead animals [5]: no dead animal was found |
| Cc1cn(-c2ccc3c(c2)CSC(=O)N3)cn1 [6-(4-methylimidazol-1-yl)-(4H)-3,1-benzothiazin-2-one] | 2.3 | 0 | 0 | 14.8 | 0 | -4 | -8.5 | -9.1 | 0.6 | 33.3 | 0 | -10 | -14.3 | -12.5 | 4.5 | 40.7 | 8.2 | -14 | -20 | -17.5 | activation at 0.03 mg ([1]; Canis lupus familiaris, dose 30.0 ug, read-out: change of sinus rate (%)): 5.6%; activation at 0.01 mg [2]: 20.5%; activation at 0.03 mg ([2]; dose 30.0 ug): 30.7%; dead animals [6]: no dead animal was found |
